{
  "source": "patent US20260242390A1",
  "about": "“TOTAL SYNTHESES OF PORTIMINE A AND ANALOGUES THEREOF AS SMALL MOLECULE MODULATORS OF NMD3” (priority 2023, published 2026)",
  "data": [
    {"system": "Jurkat cells", "assay": "Initial SAR: activity of PAL functionalized PTMA analogs", "format": "cell-based, human", "conditions": "in the concentrate range", "excerpt": "FIG. 3. Initial SAR studies: Assessing activity of PAL functionalized PTMA analogs. […] (A) PA and Ph-PA show less toxic to healthy PBMCs compared to Jurkat cells. […] (B) Immunoblot of caspase-3 in Jurkat and PBMCs with indicated conditions.\n• 1) Portimine A and its functional analogs show stereo-selective acute toxicity in cancer cells (FIG. 1). […] (B) Structure of portimine related analogs: phenyl-portimine A (Ph-PA, 36) and epi-portimine A (ePA, 38). Structure of fully functionalized portimine A-based epimeric probe pair: portimine A-diazirine-alkyne (PA-DA, 35-2) and epi-portimine A-diazirine-alkyne (ePA-DA, 35-1). (C) Cell viability analysis of portimine A and analogs. Jurkat cells were treated with increasing concentrations of portimine A and analogs for 24 hours. All presented data as mean of biological replicated experiments (n=3). […] Jurkat cells were treated with portimine A or analogs for 12 hours at 10 nM. […] Structurally related negative control ePA and PB are non-toxic in all cell types in the current concentrate range. PBMCs (25k per well), Jurkat (10k per well). […] Cell cycle analysis in Jurkat cells (FIG. 2). Jurkat cells were treated with 10 nM of indicated compounds for 24 hours, and propodium iodide was used to identify different stages of cells by flow cytometry. […] (A) PA and Ph-PA show less toxic to healthy PBMCs compared to Jurkat cells. […] (B) Immunoblot of caspase-3 in Jurkat and PBMCs with indicated conditions. […] (A) Pharmacokinetic studies of mouse intraperitoneal (i.p.) and oral (p.o.) administration for portimine (n=3). […] Impact of PA [0.3 or 1 mg/kg intraperitoneally] on MC38 tumor growth in WT mice (n=6). (C) Kaplan-Myer survival curve of WT MC38 tumor-bearing mice (n=6) after treatment with PA as described in (D). Mice were euthanized when tumor area exceeded 2000 mm^3. Statistical analysis was performed using ANOVA analysis followed by multiple comparisons test, * p≤0.05. Treatment condition: Jurkat (60 M per condition); PA-DA/ePA-DA concentration: 0.5 uM, PA or ePA: 5 uM; Incubate with probe with or without competitors (PA, ePA) for 30 min; UV irradiated for 20 min. (0.5 uM PA-DA add a no-UV condition), Standard pulldown & biotin-enrichment and western blot analysis (Elute condition: 2× sample buffer+500 uM biotin, boil for 20 mins); Primary antibody NMD3 (ProteinTech, 1:150), Actin (BioRad, 1:10000). […] Cell lysates were fractionated by sucrose gradient (5-50%) and each fraction were analyzed by western blot. eIF6 levels increase in 60S subunit fraction and decrease in ribosome-free fractions after PA treatment. […]", "values": [
      {"compound": "C=CC1=C[C@@H]2[C@@H]3O[C@]4(CC[C@H](O4)C(C)C[C@@H](O)C3=O)C[C@@H](O)C3=NCC[C@@]32CC1", "note": "(stereo partly drawn) [ePA, epi-portimine A]", "activity of PAL functionalized PTMA analogs": "no activity"},
      {"compound": "C#CCCC1(CCNC(=O)c2ccc(C3=C[C@@H]4[C@@H]5O[C@]6(CC[C@H](O6)C(C)C[C@@H](O)C5=O)C[C@@H](O)C5=NCC[C@@]54CC3)cc2)N=N1", "note": "(stereo partly drawn) [ePA-DA, epi-portimine A-diazirine-alkyne]", "activity of PAL functionalized PTMA analogs": "no activity"},
      {"compound": "C#CCCC1(CCNC(=O)c2ccc(C3=C[C@@H]4[C@@H]5O[C@]6(CC[C@H](O6)C(C)C[C@@H](O)C5=O)CC(O)C5=NCC[C@@]54CC3)cc2)N=N1", "note": "(stereo partly drawn) [PA-DA, portimine A-diazirine-alkyne]", "activity of PAL functionalized PTMA analogs": "analogous activity to PTMA"}
    ]}
  ]
}
